From patent publication US7745446B2, “Pyrazolo[1,5-c]pyrimidines” (Bayer Schering Pharma Aktiengesellschaft, priority 2004, dated 2010)

Columns and labels:
[1] = test system: phosphorylated GSK3 (Ser9) in MCF7 cells; assay: Cellular pGSK3 assay (pGSK3-ELISA); assay type: cell-based; conditions: Homo sapiens, 48 h, read-out: GSK3 inhibition (pGSK3-ELISA): IC50
Procedure: In order to study the cellular activity of the compounds according to the invention, an ELISA-based assay has been established for the phosphorylated glycogen synthetase kinase 3, GSK3. The assay is based on a solid phase sandwich ELISA that detects endogenous levels of the phosphorylated GSK3 (BioSource International, Inc.; Catalog #KH00461). A phospho-GSK3 (Ser9) antibody has been coated onto the microwells. After incubation with cell lysates, the coated antibody captures the phosphorylated GSK3 protein. Following extensive washing, GSK3 polyclonal antibody is added to detect the captured phospho-GSK3 protein. […] (anti-rabbit IgG-HRP) is then used to recognize the bound detection antibody. After the second incubation and washing to remove all the excess anti-rabbit IgG-HRP, a substrate solution is added, which is acted upon by the bound enzyme to produce color. The intensity of this colored product is directly proportional to the concentration of […] [pS9] present in the original specimen.
MCF7 cells (ATCC HTB-22) are seeded into 96 well plates at a density of 10000 cells/well.
Cells are harvested and lysed with brief vortexing in cell extraction buffer (10 mM Tris, pH 7.4, 100 mM NaCl, 1 mM EDTA, 1 mM EGTA, 1 mM NaF, 20 mM Na4P2O7, 2 mM Na3VO4, 1% Triton X-100, 10% glycerol, 0.1% SDS, 0.5% deoxycholate, 1 mM PMSF). The lysate are centrifuged for 10 minutes at 4° C. and the supernatant transferred to a new tube. 50 μl of sample diluent (standard diluent buffer, Biosource) are added and 100 μl of cell lysate transferred into the tube and vortexed. 100 μl of each diluted cell lysate are added to the appropriate well (phospho-GSK3 (Ser9) antibody coated microwells; BioSource) and incubated for 3 h at room temperature. The plates are washed 4 times with 1× wash buffer (Biosource). […] The absorbance is measured at 450 nm (Wallac Victor2; Perkin Elmer, USA) within 30 minutes after adding Stop solution. The analysis of the data is performed using a statistical program (Microsoft Excel, USA) and the inhibition of pGSK3 phosphorylation is determined.

PKA = biological target: T1, PKA (Homo sapiens, UniProt P17612); assay: Biochemical PKA assay (flashplate); conditions: 100 nM ATP; read-out: PKA inhibition: −log IC50 (converted)
T1 construct: His; purchased PanVera, USA #R3791; host or cells: E. coli
Outline: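 His-tagged human recombinant PKA catalytic subunit (E. coli), 1 ng/well, with 0.5 μM PKA peptide and 100 nM ATP including ^33P-ATP. Buffer […] pH7,5, 3 mM MgCl2, 3 mM MnCl2, Na-orthovanadate, 1 mM DTT; 80 min at 22° C. Stopped with H3PO4, scintillation flashplate counting, IC50 derived.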

SMILES	IC50 [1] [µM]	IC50 (PKA) [µM]
O=C(Nc1cccc(Nc2nc(-c3cccc4c3oc3ccccc34)cc3ccnn23)c1)c1ccc2c(c1)CCNC2 [Example 63, 1,2,3,4-Tetrahydro-isoquinoline-6-carboxylic acid [3-(5-dibenzofuran-4-yl-pyrazolo[1,5-c]pyrimidin-7-ylamino)-phenyl]-amide]	< 10	6.31 to 100
NCCCC(=O)Nc1ccc(Nc2nc(-c3cccc4c3oc3ccccc34)cc3ccnn23)cc1 [Example 24, 4-Amino-N-[4-(5-dibenzofuran-4-yl-pyrazolo[1,5-c]pyrimidin-7-ylamino)-phenyl]-butyramide]	< 10	–
COc1cccc(-c2ccc(-c3cc4ccnn4c(Nc4ccc(NC(=O)c5ccc(CN)cc5)cc4)n3)cc2)c1 [Example 59, 4-Aminomethyl-N-{4-[5-(3′-methoxy-biphenyl-4-yl)-pyrazolo[1,5-c]pyrimidin-7-ylamino]-phenyl}-benzamide]	< 10	6.31 to 100
